In PubChem BioAssay AID1963875 (Molecular Pharmacology Branch, DTP, NCI, 2024):

Tested on: KRAS-mutant PDC complex spheroid viability
Test: Anticancer human tumor 186277-243-T-J2-PDC patient-derived colon adenocarcinoma cell line growth inhibition [KRAS2]
Settings: for IC50: curve of first compound; for viability, T/C: stronger effect = lower value
Procedure, shortened: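 Combination screen of spheroid viability in tumor-cell co-cultures with endothelial (HUVEC) and mesenchymal stem cell stroma. Each agent was tested in half-log dilutions, topping at clinical Cmax or at 10 microM without a known Cmax.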

[1] = second compound 0.0316 µM, first compound 0.0316 µM
[2] = second compound 0.0316 µM, first compound 0.1 µM
[3] = second compound 0.0316 µM, first compound 0.316 µM
[4] = second compound 0.0316 µM, first compound 1 µM
[5] = second compound 0.0316 µM, first compound 3.16 µM
[6] = second compound 0.0316 µM, first compound 10 µM
[7] = second compound 0.1 µM, first compound 0.0316 µM
[8] = second compound 0.1 µM, first compound 0.1 µM
[9] = second compound 0.1 µM, first compound 0.316 µM
[10] = second compound 0.1 µM, first compound 1 µM
[11] = second compound 0.1 µM, first compound 3.16 µM
[12] = second compound 0.1 µM, first compound 10 µM
[13] = second compound 0.316 µM, first compound 0.0316 µM
[14] = second compound 0.316 µM, first compound 0.1 µM
[15] = second compound 0.316 µM, first compound 0.316 µM
[16] = second compound 0.316 µM, first compound 1 µM
[17] = second compound 0.316 µM, first compound 3.16 µM
[18] = second compound 0.316 µM, first compound 10 µM
[19] = second compound 1 µM, first compound 0.0316 µM
[20] = second compound 1 µM, first compound 0.1 µM
[21] = second compound 1 µM, first compound 0.316 µM
[22] = second compound 1 µM, first compound 1 µM
[23] = second compound 1 µM, first compound 3.16 µM
[24] = second compound 1 µM, first compound 10 µM
[25] = second compound 3.16 µM, first compound 0.0316 µM
[26] = second compound 3.16 µM, first compound 0.1 µM
[27] = second compound 3.16 µM, first compound 0.316 µM
[28] = second compound 3.16 µM, first compound 1 µM
[29] = second compound 3.16 µM, first compound 3.16 µM
[30] = second compound 3.16 µM, first compound 10 µM
[31] = second compound 0.0316 µM, first compound 0.000316 µM
[32] = second compound 0.0316 µM, first compound 0.001 µM
[33] = second compound 0.0316 µM, first compound 0.00316 µM
[34] = second compound 0.0316 µM, first compound 0.01 µM
[35] = second compound 0.1 µM, first compound 0.000316 µM
[36] = second compound 0.1 µM, first compound 0.001 µM
[37] = second compound 0.1 µM, first compound 0.00316 µM
[38] = second compound 0.1 µM, first compound 0.01 µM
[39] = second compound 0.316 µM, first compound 0.000316 µM
[40] = second compound 0.316 µM, first compound 0.001 µM
[41] = second compound 0.316 µM, first compound 0.00316 µM
[42] = second compound 0.316 µM, first compound 0.01 µM
[43] = second compound 1 µM, first compound 0.000316 µM
[44] = second compound 1 µM, first compound 0.001 µM
[45] = second compound 1 µM, first compound 0.00316 µM
[46] = second compound 1 µM, first compound 0.01 µM
[47] = second compound 3.16 µM, first compound 0.000316 µM
[48] = second compound 3.16 µM, first compound 0.001 µM
[49] = second compound 3.16 µM, first compound 0.00316 µM
[50] = second compound 3.16 µM, first compound 0.01 µM
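For viability, T/C in this document: viability read after seven days of compound exposure; 100% = DMSO vehicle-treated spheroids so lower means less viable.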

| SMILES | IC50 (second compound 0.0316 µM) | IC50 (second compound 0.1 µM) | IC50 (second compound 0.316 µM) | IC50 (second compound 1 µM) | IC50 (second compound 3.16 µM) | viability, T/C [1] | viability, T/C [2] | viability, T/C [3] | viability, T/C [4] | viability, T/C [5] | viability, T/C [6] | viability, T/C [7] | viability, T/C [8] | viability, T/C [9] | viability, T/C [13] | viability, T/C [14] | viability, T/C [19] | viability, T/C [20] | viability, T/C [25] | viability, T/C [26] | further results |
| --- | --- | --- | --- | --- | --- | --- | --- | --- | --- | --- | --- | --- | --- | --- | --- | --- | --- | --- | --- | --- | --- |
| CC(C)NCC(C(=O)N1CCN(c2ncnc3c2C(C)CC3O)CC1)c1ccc(Cl)cc1 (stereo not given) + C=CC(=O)N1CCN(c2nc(OCC3CCCN3C)nc3c2CCN(c2cccc4cccc(C)c24)C3)CC1CC#N | 691 nM | 664 nM | 505 nM | 248 nM | < 31.6 nM | 93.5% | 105% | 73.5% | 37% | 26.5% | 11.2% | 113% | 87.8% | 72.7% | 108% | 96.3% | 97.8% | 104% | 0.22% | 0.21% | viability, T/C [10]: 36.5%; viability, T/C [11]: 23.6%; viability, T/C [12]: 12.3%; viability, T/C [15]: 62.4%; viability, T/C [16]: 29.9%; viability, T/C [17]: 19.2%; viability, T/C [18]: 8.67%; viability, T/C [21]: 36.3%; viability, T/C [22]: 18.4%; viability, T/C [23]: 9.11%; viability, T/C [24]: 4.64%; viability, T/C [27]: 0.16%; viability, T/C [28]: 0.13%; viability, T/C [29]: 0.12%; viability, T/C [30]: 0.21% |
| CC(C)n1nc(-c2ccc3oc(N)nc3c2)c2c(N)ncnc21 + C=CC(=O)N1CCN(c2nc(OCC3CCCN3C)nc3c2CCN(c2cccc4cccc(C)c24)C3)CC1CC#N | 7.13 nM | 10.1 nM | 13.6 nM | 6.5 nM | < 0.316 nM | 28.2% | 16.9% | – | – | – | – | 27.4% | 21.2% | – | 27% | 16.4% | 12.8% | 8.12% | 0.12% | 0.16% | viability, T/C [31]: 89.7%; viability, T/C [32]: 78.9%; viability, T/C [33]: 63.5%; viability, T/C [34]: 44.2%; viability, T/C [35]: 88%; viability, T/C [36]: 101%; viability, T/C [37]: 77.8%; viability, T/C [38]: 51.2%; viability, T/C [39]: 106%; viability, T/C [40]: 111%; viability, T/C [41]: 97.1%; viability, T/C [42]: 58.2%; viability, T/C [43]: 102%; viability, T/C [44]: 96.1%; viability, T/C [45]: 70.8%; viability, T/C [46]: 38.4%; viability, T/C [47]: 0.26%; viability, T/C [48]: 0.19%; viability, T/C [49]: 0.24%; viability, T/C [50]: 0.14% |
| CC1(C)CCC(CN2CCN(c3ccc(C(=O)NS(=O)(=O)c4ccc(NCC5CCOCC5)c([N+](=O)[O-])c4)c(Oc4cnc5[nH]ccc5c4)c3)CC2)=C(c2ccc(Cl)cc2)C1 + C=CC(=O)N1CCN(c2nc(OCC3CCCN3C)nc3c2CCN(c2cccc4cccc(C)c24)C3)CC1CC#N | 2130 nM | 2240 nM | 1950 nM | 1770 nM | < 31.6 nM | 101% | 107% | 110% | 117% | 19.4% | 3.14% | 115% | 105% | 112% | 114% | 108% | 119% | 101% | 0.28% | 1.07% | viability, T/C [10]: 108%; viability, T/C [11]: 25%; viability, T/C [12]: 4.15%; viability, T/C [15]: 97.8%; viability, T/C [16]: 105%; viability, T/C [17]: 10.8%; viability, T/C [18]: 0.82%; viability, T/C [21]: 115%; viability, T/C [22]: 98.2%; viability, T/C [23]: 0.67%; viability, T/C [24]: 0.35%; viability, T/C [27]: 0.22%; viability, T/C [28]: 0.18%; viability, T/C [29]: 0.13%; viability, T/C [30]: 0.17% |
| CCNC(=O)CC1N=C(c2ccc(Cl)cc2)c2cc(OC)ccc2-n2c(C)nnc21 (stereo not given) + C=CC(=O)N1CCN(c2nc(OCC3CCCN3C)nc3c2CCN(c2cccc4cccc(C)c24)C3)CC1CC#N | > 10000 nM | > 10000 nM | > 10000 nM | 8180 nM | < 31.6 nM | 100% | 102% | 118% | 171% | 151% | 118% | 106% | 99% | 113% | 99.9% | 96.9% | 97% | 107% | 1.32% | 10.2% | viability, T/C [10]: 169%; viability, T/C [11]: 154%; viability, T/C [12]: 116%; viability, T/C [15]: 125%; viability, T/C [16]: 149%; viability, T/C [17]: 130%; viability, T/C [18]: 102%; viability, T/C [21]: 138%; viability, T/C [22]: 138%; viability, T/C [23]: 93.6%; viability, T/C [24]: 40.8%; viability, T/C [27]: 1.62%; viability, T/C [28]: 1.12%; viability, T/C [29]: 0.2%; viability, T/C [30]: 0.24% |
| COc1cc2nccc(Oc3ccc(NC(=O)C4(C(=O)Nc5ccc(F)cc5)CC4)cc3)c2cc1OC + C=CC(=O)N1CCN(c2nc(OCC3CCCN3C)nc3c2CCN(c2cccc4cccc(C)c24)C3)CC1CC#N | 1880 nM | 1890 nM | 1720 nM | 1060 nM | < 31.6 nM | 108% | 107% | 114% | 95.5% | 12.5% | 12.3% | 113% | 122% | 110% | 109% | 108% | 107% | 109% | 0.41% | 0.44% | viability, T/C [10]: 97.8%; viability, T/C [11]: 11.4%; viability, T/C [12]: 10.8%; viability, T/C [15]: 116%; viability, T/C [16]: 85.3%; viability, T/C [17]: 10.5%; viability, T/C [18]: 11.3%; viability, T/C [21]: 112%; viability, T/C [22]: 52.5%; viability, T/C [23]: 3.98%; viability, T/C [24]: 0.37%; viability, T/C [27]: 0.24%; viability, T/C [28]: 0.21%; viability, T/C [29]: 0.13%; viability, T/C [30]: 0.2% |
| Cn1ncnc1[C@H]1c2n[nH]c(=O)c3cc(F)cc(c23)N[C@@H]1c1ccc(F)cc1 + C=CC(=O)N1CCN(c2nc(OCC3CCCN3C)nc3c2CCN(c2cccc4cccc(C)c24)C3)CC1CC#N | > 100 nM | > 100 nM | > 100 nM | > 100 nM | < 0.316 nM | 99.2% | 79.8% | – | – | – | – | 98.3% | 80.5% | – | 90.1% | 79.4% | 70.8% | 63.4% | 0.21% | 0.27% | viability, T/C [31]: 94.5%; viability, T/C [32]: 109%; viability, T/C [33]: 100%; viability, T/C [34]: 93.8%; viability, T/C [35]: 114%; viability, T/C [36]: 98.5%; viability, T/C [37]: 110%; viability, T/C [38]: 94.9%; viability, T/C [39]: 92%; viability, T/C [40]: 109%; viability, T/C [41]: 106%; viability, T/C [42]: 108%; viability, T/C [43]: 103%; viability, T/C [44]: 95.4%; viability, T/C [45]: 105%; viability, T/C [46]: 84.8%; viability, T/C [47]: 0.19%; viability, T/C [48]: 0.19%; viability, T/C [49]: 0.16%; viability, T/C [50]: 0.18% |
